23 molecules from patent US8865672B2, “Prevention of tissue ischemia and related methods” (The United States of America, as represented by the …, priority 2006, dated 2014) can be followed below.

Peptide text beside a SMILES is read from it.

Data set [1] has as its system blood pressure and pulse in mice. The data set can be described thus: Blood pressure and pulse measurements (tail cuff). It counts as in vivo, mouse. Here is the method:
Mean systolic, diastolic and arterial blood pressure (BP) and mean pulse was measured in age and sex matched mice using a computerized tail cuff system (Hatteras Systems, MC4000 Blood Pressure Analysis System, Cary, N.C.). The mice were allowed to acclimate to the apparatus for 5 min prior to the start of measurement. Each animal underwent a cycle of 10 preliminary and 50 experimental pressures measurements for data acquisition and data calculation. Animals were acclimated to the measuring system and protocol for 4 days with treatment with data acquisition being performed on the 5th day. Pressures recordings were performed at the same time each day. Data was accepted if the mouse had valid readings for at least 20 consecutive pulse beats. All studies were performed at the same hour each day.
Respirations were monitored continuously monitored by direct observation of the animal. Body core temperature was measured via rectal probe. Temperature control was performed using a water-circulating warming surface and heating lamp. Following a 15 minute period of stabilization mean systolic, diastolic and arterial blood pressure and mean pulse measurements were determined.

For data set [2], the system named is NO/cGMP signaling. As to the kind of experiment: cGMP signaling (NO-stimulated cGMP, immunoassay). It counts as cell-based, human. Conditions: concentration for 50% inhibition of effect. Here is the method: Vascular cells (endothelial) or HT-1080 cells (10^4 cells/well) grown overnight in 12-well culture in SM-GM containing 2% FCS or RPMI+10% FCS respectively and then weaned off serum over 48 h before treatment with NO donors and other agents in serum/additive free medium+0.1% BSA. Intracellular cGMP levels were determined using an enzyme immunoassay (Amersham, GE Health Care, UK). In other experiments fresh washed human platelets were incubated in Tyrode's buffer and the indicated treatment agents±NO and cGMP determined.

The test system of data set [3] is human platelets. The data set can be described thus: Thrombin-induced human platelet aggregation. It counts as cell-based. The note with it: DEA/NO 10 μM. Here is the method: Platelets were pelleted from platelet-rich plasma (PRP) by centrifugation for 10 minutes at 200 g. They were then washed with acid citrate dextrose (ACD) (85 mM citric acid, 65 mM sodium citrate, 100 mM glucose, pH 5.1) at a ratio of 1:7 at room temperature. After pelleting the platelets again and removing the supernatant, the platelets were resuspended in 5 mL of Tyrode's buffer (137 mM NaCl, 3 mM KCl, 12 mM NaHCO3, 0.3 mM NaHPO4, 2 mM CaCl2, 1 mM MgCl2, 5.5 mM glucose, 5 mM HEPES, 3.5 mg/mL BSA, pH 7.4). The final platelet number was adjusted to […] in 500 μl/cuvette of Tyrode's buffer.
Aggregation of human platelets under high shear conditions was assessed using a standard optical aggregometer (Lumi-Dual Aggregometer, Chrono-Log Corp., Havertown, Pa.) at 37° C. and 1200 rpm in a volume of 500 μl buffer with a final platelet concentration of 2×10^5 platelets/μl over a 5 minute interval. Pre-incubation with TSP1 and TSP1-based agents was for 15 minutes prior to addition of thrombin and/or the rapidly releasing nitric oxide donor DEA/NO. In some experiments platelets were pre-incubated with the Rap1 inhibitor GGTI-298 (10 μM) (Calbiochem, La Jolla, Calif.) for 30 minutes prior to initiating aggregation. In other high shear aggregation experiments murine platelets were prepared as above with the following modifications. Mouse blood was collected by retro-orbital bleeding of anesthetized mice using heparinized tubes. PRP was prepared and then diluted with 4 vol. of Tyrodes containing 5 mM EDTA to prevent activation. After collection by centrifugation, platelets were resuspended in 2× initial PRP volume and held at room temperature for less than 1 hour before use. Aggregation conditions consisted of 250 μL of washed platelets stirred at 1200 rpm in a Chronolog Optical aggregometer at 37° C. DEA/NO (10 μM) was added 30 seconds prior to activation and 8-BrcGMP added 15 min prior to activation with 0.2 U/ml human thrombin. Data was collected using Chronolog “Aggrolink” software. Platelet aggregation under static conditions was assessed using a spectrophotometer (Beckman DU 640, Beckman Coulter, Fullerton, Calif.) and determined as a change in absorbance at 400 nm with continuous observation over a five minute interval. The cuvette was inverted once every 60 seconds. Pre-incubation with TSP1 and TSP1-based agents was for 15 minutes prior to addition of thrombin and/or DEA/NO to minimize the formation of thrombin-serpinthrombospondin complexes (Chang & Detwiler, Arch Biochem Biophys. 299:100-104, 1992), which interfere with thrombin-platelet interactions.
Fresh human platelets were suspended in Tyrode's buffer and under low shear conditions thrombin-stimulated aggregation measured as described. Platelets were then treated with peptide C6d (1 μM)±NO (10 μM DEA/NO) and thrombin and aggregation measure.

The test system of data set [4] is human platelets. As to the kind of experiment: cGMP in human platelets. It counts as cell-based. Conditions: washed human platelets in Tyrode's buffer. The protocol:
Fresh human platelets at 2×10^5 platelets/μl in Tyrode's buffer or PRP were pre-incubated with the indicated agents for 15 minutes and then challenged with DEA/NO for the indicated time interval at room temperature and total cGMP determined via immunoassay (Amersham, GE Healthcare, Buckinghamshire, UK). Murine WT and TSP1-null platelets were treated with DEA/NO and cGMP flux measured.

Data set [5] deals with HUVEC. As to the kind of experiment: NO-stimulated HUVEC adhesion on type I collagen. Conditions: DEA/NO 10 μM, 1 h. It counts as cell-based, human. The protocol: Cell adhesion was carried out in 96-well culture plates. After pre-coating wells with type I collagen (3 μg/ml in DPBS) harvested cells were plated at a density of 1×10^4 cells/well in medium plus 0.1% BSA and treatment agents and incubated in 5% CO2 for 1 h. Wells were washed with PBS and cells fixed with 1% glutaraldehyde for 10 min., washed and stained with 1% crystal violet for 20 min. Excess stain was rinsed away, adherent cells treated with 10% acetic acid, and plates read at 570 nm.

As to `CCCN(CCCN)/[N+]([O-])=N/O` [PAPA/NO], the “mean arterial blood pressure response” value in data set [1] (CD47 null animals, i.p.) is “greatest drop in mean arterial blood pressure”. Besides, in data set [1] (TSP1 null versus wild type, i.p.), the blood pressure response result is listed as “drop in mean arterial pressure always greater in the absence of TSP1”. Also, the mean pulse entry in data set [1] (after i.p. challenge) was “only modestly increased”.
What is called IC50 is the concentration that inhibits the measured activity by half. Read a low IC50 as greater potency. Molecule `CC[C@H](C)[C@H](N)C(=O)NCC(=O)N[C@@H](Cc1c[nH]c2ccccc12)C(=O)N[C@@H](CCCCN)C(=O)N[C@@H](CC(N)=O)C(=O)N[C@@H](Cc1ccccc1)C(=O)N[C@H](C(=O)N[C@@H](C)C(=O)N[C@@H](Cc1ccc(O)cc1)C(=O)N[C@@H](CCCNC(=N)N)C(=O)O)[C@@H](C)O` [compound 37297, IGWKNFTAYR] (H-IGWKNFTAYR-OH) yielded an IC50 in data set [2] of more than 10 µM.
On the same count and under the same terms, under `CC[C@H](C)[C@H](N)C(=O)NCC(=O)N[C@@H](Cc1c[nH]c2ccccc12)C(=O)N[C@@H](CCCCN)C(=O)N[C@@H](CC(=O)O)C(=O)N[C@@H](Cc1ccccc1)C(=O)N[C@@H](C)C(=O)N[C@@H](C)C(=O)N[C@@H](Cc1ccc(O)cc1)C(=O)N[C@@H](CCCNC(=N)N)C(=O)O` [compound 37299, IGWKDFAAYR] (H-IGWKDFAAYR-OH) stands more than 10 µM; under `CC(=O)N[C@@H](Cc1c[nH]c2ccccc12)C(=O)N[C@@H](CCCCN)C(=O)N[C@@H](CC(=O)O)C(=O)N[C@@H](Cc1ccccc1)C(=O)N[C@H](C(=O)N[C@@H](C)C(=O)N[C@@H](Cc1ccc(O)cc1)C(=O)N[C@@H](CCCNC(=N)N)C(=O)O)[C@@H](C)O` [compound 37300, Ac-WKDFTAYR] (Ac-WKDFTAYR-OH), approximately 1 µM; under `CC[C@H](C)[C@H](N)C(=O)NCC(=O)N[C@@H](Cc1c[nH]c2ccccc12)C(=O)N[C@@H](C)C(=O)N[C@@H](CC(=O)O)C(=O)N[C@@H](Cc1ccccc1)C(=O)N[C@H](C(=O)N[C@@H](C)C(=O)N[C@@H](Cc1ccc(O)cc1)C(=O)N[C@@H](CCCNC(=N)N)C(=O)O)[C@@H](C)O` [compound 37413, IGWADFTAYR] (H-IGWADFTAYR-OH), more than 10 µM.
On to `CC[C@H](C)[C@H](N)C(=O)NCC(=O)N[C@@H](Cc1c[nH]c2ccccc12)C(=O)N[C@@H](Cc1c[nH]cn1)C(=O)N[C@@H](CC(=O)O)C(=O)N[C@@H](Cc1ccccc1)C(=O)N[C@H](C(=O)N[C@@H](C)C(=O)N[C@@H](Cc1ccc(O)cc1)C(=O)N[C@@H](CCCNC(=N)N)C(=O)O)[C@@H](C)O` [compound 37414, IGWHDFTAYR] (H-IGWHDFTAYR-OH), for which the IC50 in data set [2] is more than 10 µM.
The same measure, in the same setting: with `CC[C@H](C)[C@H](N)C(=O)NCC(=O)N[C@@H](Cc1c[nH]c2ccccc12)C(=O)N[C@@H](CCCCN)C(=O)N[C@@H](CCC(=O)O)C(=O)N[C@@H](Cc1ccccc1)C(=O)N[C@H](C(=O)N[C@@H](C)C(=O)N[C@@H](Cc1ccc(O)cc1)C(=O)N[C@@H](CCCNC(=N)N)C(=O)O)[C@@H](C)O` [compound 37415, IGWKEFTAYR] (H-IGWKEFTAYR-OH) the figure was 1 µM; with `C[C@H](N)C(=O)NCC(=O)N[C@@H](Cc1c[nH]c2ccccc12)C(=O)N[C@@H](CCCCN)C(=O)N[C@@H](CC(=O)O)C(=O)N[C@@H](Cc1ccccc1)C(=O)N[C@H](C(=O)N[C@@H](C)C(=O)N[C@@H](Cc1ccc(O)cc1)C(=O)N[C@@H](CCCNC(=N)N)C(=O)O)[C@@H](C)O` [compound 37416, AGWKDFTAYR] (H-AGWKDFTAYR-OH), approximately 1 µM; with `CC[C@H](C)[C@H](N)C(=O)NCC(=O)N[C@@H](Cc1ccc(O)cc1)C(=O)N[C@@H](CCCCN)C(=O)N[C@@H](CC(=O)O)C(=O)N[C@@H](Cc1ccccc1)C(=O)N[C@H](C(=O)N[C@@H](C)C(=O)N[C@@H](Cc1ccc(O)cc1)C(=O)N[C@@H](CCCNC(=N)N)C(=O)O)[C@@H](C)O` [compound 37417, IGYKDFTAYR] (H-IGYKDFTAYR-OH), approximately 0.1 µM.
`CC[C@H](C)[C@H](N)C(=O)NCC(=O)N[C@@H](Cc1c[nH]c2ccccc12)C(=O)N[C@@H](CCCCN)C(=O)N[C@@H](CC(=O)O)C(=O)N[C@@H](Cc1ccccc1)C(=O)N[C@H](C(=O)N[C@@H](C)C(=O)N[C@@H](C)C(=O)N[C@@H](CCCNC(=N)N)C(=O)O)[C@@H](C)O` [compound 37555, IGWKDFTAAR] (H-IGWKDFTAAR-OH) yielded an IC50 in data set [2] of approximately 10 µM.
As to `FC(F)OC(Cl)C(F)(F)F` (stereo not shown) [isoflurane, Isoflurane], the “blood pressure under general anesthesia” value in data set [1] (TSP1-null animals) is “significant decreases in systolic, diastolic and mean arterial blood pressures”; in data set [1] (wild type mice), “very modest overall drop in mean arterial pressure”.
For “E123CaG-1: recombinant C-terminal domains of TSP1”, the “NO delay of thrombin-induced platelet aggregation” value (“NO delay” for short) is recorded as “blocked the ability of NO to delay thrombin-induced aggregation” in data set [3] (high shear, thrombin 0.2 U/ml) and “reversed the NO delay of aggregation under static conditions” in data set [3] (static / low shear conditions). Besides, the “NO stimulated cGMP in platelets” value in data set [4] is on record as “inhibited NO stimulated cGMP flux”.
For the molecule “FIRGGMYEGKK [compound 604, control peptide for 7N3]”, the “NO delay” value in data set [3] (high shear, thrombin 0.2 U/ml) was “no effect”.
Still for that read-out and setting: under “FIRVAIYEGKK [compound 605, control peptide for 7N3]” stands “no effect”.
With IGWKAFTAYR [compound 37296], the “cGMP signaling IC50” value in data set [2] was “inactive”.
As to IGWKDFTAYK [compound 37554], the “cGMP signaling IC50” value in data set [2] was “inactive”.
For the molecule KRFKQDGGWSHWSPWSS [p246], the “NO delay” value in data set [3] (static / low shear conditions) was “inactive”.
On the same count and under the same terms, under “KRFYVVMWKK [4N1K, derivative of the 4N1-1 peptide with terminal lysines]” stands “prevented an NO-stimulated delay in platelet aggregation”.
In the case of “RFYGGMWK [p4N1G, control peptide, VVM substituted by GGM]”, the “NO-stimulated endothelial cell adhesion on type I collagen” value (shortened to “NO-stimulated endothelial cell adhesion”) in data set [5] is on record as “did not significantly inhibit”.
For the molecule RFYVVMWK [4N1-1], the “NO-stimulated endothelial cell adhesion” value in data set [5] is “inhibited NO-stimulated endothelial cell adhesion”. The “NO delay” value in data set [3] (static / low shear conditions) is “prevented an NO-stimulated delay in platelet aggregation”.
On to VTAGGGVQKRSRL [p906], for which the “NO-stimulated endothelial cell adhesion” value in data set [5] is given as “inhibited NO-stimulated endothelial cell adhesion”. The “NO delay” value in data set [3] (static / low shear conditions) is recorded as “reversed an NO-stimulated delay of platelet aggregation”.
On to fibrinogen, for which the “NO delay” value in data set [3] (high shear, thrombin 0.2 U/ml) is recorded as “no significant effect”.
Take fibronectin [reference compound]: the “NO delay” value in data set [3] (high shear, thrombin 0.2 U/ml) is “no significant effect”. Moreover, the “NO stimulated cGMP in platelets” value in data set [4] is “no inhibition”.
